Experimental findings from patent US20250100973A1, “DIIMIDE DERIVATIVE, AND PREPARATION METHOD THEREFOR AND USE THEREOF” (XIANGBEI WELMAN PHARMACEUTICAL CO., LTD., priority 2022, published 2025) are described below.

As usually defined, the IC50 is the concentration needed to halve the response being measured.

Where two headings read alike, the source gives them in different places.

In test [1] the test system is A549 human lung cancer cells. The experiment in a line: In vitro antiproliferative activity (resazurin, 96 h). It is filed as cell-based. Conditions: read-out: IC50 grade of inhibitory effect on tumor cells, A549. The protocol:
(§1) Objective: to test the antiproliferative activity of the compound in the present disclosure against a variety of tumor cells. […] Amonafide and lomustine were commercially available. Test cells: human colon cancer cells (HT-29, COLO 205), human lung cancer cells (NCI-H460, A549), and human leukemia cells (HL-60, U-937). Test methods: each tumor cell was processed separately. Cells were cultured in a culture medium at 37° C. for 24 h for later use. The cells in the exponential growth phase were harvested, treated with trypsin to prepare a cell suspension, the cell suspension was centrifuged, and then the cell pellet was resuspended in a small amount of fresh culture medium as a stock cell solution. A 96-well plate was taken, and blank control groups, cell control groups and compound treatment groups were set up. […] The remaining wells were filled with 200 μL of 10% PBS. The plate was placed in an incubator overnight. 100 μL of each test compound at different dilution concentrations was added into each well of the compound treatment groups, 10 and the dilution concentrations of the compound were as shown in Table 2. […] After adding the drug, the plate was placed in an incubator to be cultured for 96 hours, 22 μL of resazurin sodium solution (Alarm blue, SIGMA R7017) was added into each well, and the plate was returned to the incubator to be cultured for another 4 h. The plate was shaken for 10 s after being taken out. A fluorescence value of each well was tested at 530/590 nm. The above operations were repeated for three times. The IC50 value of each test compound was calculated with the Prism7 software. The IC50 was divided into different grades according to value, that is: […]
Background: Resazurin is reduced to fluorescent resorufin, in cell work by metabolically active cells.

In test [2] the test system is NCI-H460 human lung cancer cells. Described as above. The format is cell-based. Conditions: read-out: IC50 grade of inhibitory effect on tumor cells, NCI-H460. The procedure: as §1
For test [3], the system named is HL-60 human leukemia cells. Described as above. It is filed as cell-based. The conditions noted are these: read-out: IC50 grade of inhibitory effect on tumor cells, HL-60. The protocol:
as §1

The test system of test [4] is COLO 205 human colon cancer cells. The test is described as above. It is filed as cell-based. Conditions: read-out: IC50 grade of inhibitory effect on tumor cells, COLO 205. The protocol: as §1
In test [5] the test system is HT-29 human colon cancer cells. Described as above. It is filed as cell-based. Conditions: read-out: IC50 grade of inhibitory effect on tumor cells, HT-29. The protocol: as §1
The test system of test [6] is U-937 human leukemia cells. The description is as above. The format is cell-based. The conditions noted are these: read-out: IC50 grade of inhibitory effect on tumor cells, U-937. The procedure:
as §1

The subject of test [7] is COLO 205 transplanted tumor. The experiment in a line: In vivo antitumor effect in COLO 205 transplanted tumor model. Also noted: species or system BALB/c nude mice. The conditions noted are these: nude mice, COLO 205 xenograft, intragastric 10 mg/kg once a day, 21 times, last day. The procedure: Objective: to further test the in vivo antitumor effects of compounds of the present disclosure
Test compounds: I-01, I-08.
Test animals: 5-week-old female BALB/c nude mice were fed normally for 7 days, and mice with good physical conditions were selected for experiments.
Tumor cells: human colon cancer cells COLO 205 were subjected to cell culture in a RPMI-1640 medium containing 10% fetal bovine serum. The passaging was carried out for 1-2 times a week, with a passaging ratio of 1:3 to 1:6.
Modeling and grouping: COLO 205 cells in a logarithmic growth phase were harvested and injected into the anterior right mammary fat pad of nude mice with an injection volume of 5×10^6 cells per animal to establish a COLO 205 transplanted tumor model. The animal status was observed regularly, tumor diameter was measured, and tumor volume was calculated. After the tumor volume reached approximately 150 mm^3, tumor-bearing mice in good health and with similar tumor volumes were selected and randomly divided into a solvent control group, an I-01 group, and an I-08 group.
Administration: each test compound was dissolved in solvent, and each animal group was treated with corresponding compounds or blank solvent, respectively. The administration method was intragastric administration, with a dosage of 10 mg/kg, once a day, and a total of 21 times.
Result: on the last day of the experiment, tumor diameter and tumor weight were measured, tumor growth inhibition rate (GI) and tumor weight inhibition rate (IR) were calculated.
Tumor growth inhibition rate=100%×[1−(Tvt−Tvini)÷(Cvt−Cvini)], where Tvt represents tumor volume of the treatment group at the end of the experiment, Tvini represents initial tumor volume of the treatment group, Cvt represents tumor volume of the solvent control group at the end of the experiment, and Cvini represents initial tumor volume of the solvent control group.
Tumor weight inhibition rate=100%×(Cw−Tw)÷Cw, where Cw represents tumor weight of the solvent control group at the end of the experiment, and Tw represents tumor weight of the treatment group at the end of the experiment.

[8] abbreviates: Homo sapiens, A549, 96 h culture, resazurin fluorescence.
Setting [9] is: Homo sapiens, NCI-H460, 96 h culture, resazurin fluorescence.
Where [10] appears, read: Homo sapiens, HL-60, 96 h culture, resazurin fluorescence.
Setting [11] is: Homo sapiens, COLO 205, 96 h culture, resazurin fluorescence.
The mark [12] stands for this setting: Homo sapiens, HT-29, 96 h culture, resazurin fluorescence.
Setting [13] is: Homo sapiens, U-937, 96 h culture, resazurin fluorescence.
The mark [14] stands for this setting: A549, 96 h culture, resazurin fluorescence.
Setting [15] is: NCI-H460, 96 h culture, resazurin fluorescence.
Where [16] appears, read: HL-60, 96 h culture, resazurin fluorescence.
Setting [17] is: COLO 205, 96 h culture, resazurin fluorescence.
[18] abbreviates: HT-29, 96 h culture, resazurin fluorescence.
Where [19] appears, read: U-937, 96 h culture, resazurin fluorescence.

In the case of `CN(C)C(=O)N(C)CCCNCN1C(=O)c2cccc3cccc(c23)C1=O` [Compound I-07], the IC50 fell in the range of 5 to 10 µM in test [1] (setting [8]); 1 to 5 µM in test [2] (setting [9]); 1 to 5 µM in test [3] (setting [10]); 1 to 5 µM in test [4] (setting [11]); 5 to 10 µM in test [5] (setting [12]); 5 to 10 µM in test [6] (setting [13]).
With `O=NN(CCCl)C(=O)NCCCCN1C(=O)c2cccc3cccc(c23)C1=O` [Compound 1d], the IC50 was in the range of 21 to 50 µM in test [1] (Homo sapiens, A549, 96 h); 51 to 100 µM in test [2] (Homo sapiens, NCI-H460, 96 h); 21 to 50 µM in test [3] (Homo sapiens, HL-60, 96 h); 21 to 50 µM in test [4] (Homo sapiens, COLO 205, 96 h); 21 to 50 µM in test [5] (Homo sapiens, HT-29, 96 h); 11 to 20 µM in test [6] (Homo sapiens, U-937, 96 h).
With `O=NN(CCCl)C(=O)NC1CCCCC1` [Lomustine], the IC50 in test [1] (setting [8]) is more than 100 µM; in test [2] (setting [9]), 51 to 100 µM; in test [3] (setting [10]), 21 to 50 µM; in test [4] (setting [11]), more than 100 µM; in test [5] (setting [12]), 51 to 100 µM; in test [6] (setting [13]), 11 to 20 µM.
Turning to `O=NN(CCCl)C(=O)NCCN1C(=O)c2cccc3cc([N+](=O)[O-])cc(c23)C1=O` [Compound 1], the IC50 in test [1] (Homo sapiens, A549, 96 h) was in the range of 5 to 10 µM; in test [2] (Homo sapiens, NCI-H460, 96 h) it was 11 to 20 µM; in test [3] (Homo sapiens, HL-60, 96 h), 11 to 20 µM; in test [4] (Homo sapiens, COLO 205, 96 h), 21 to 50 µM; in test [5] (Homo sapiens, HT-29, 96 h), 21 to 50 µM; in test [6] (Homo sapiens, U-937, 96 h), 21 to 50 µM.
Regarding `CCN(CC)C(=O)N(C)CCNCN1C(=O)c2cccc3c(OC)ccc(c23)C1=O` [Compound I-06], the IC50 in test [1] (setting [8]) lay within 1 to 5 µM; in test [2] (setting [9]), 5 to 10 µM; in test [3] (setting [10]), 1 to 5 µM; in test [4] (setting [11]), 5 to 10 µM; in test [5] (setting [12]) it was 1 to 5 µM; in test [6] (setting [13]), 1 to 5 µM.
On to `CC(C)(C)OC(=O)NCCCNCCCN1C(=O)c2cccc3cc([N+](=O)[O-])cc(c23)C1=O` [Cob281], for which the IC50 in test [1] (setting [8]) is 5 to 10 µM; in test [2] (setting [9]) it was 11 to 20 µM; in test [3] (setting [10]), 5 to 10 µM; in test [4] (setting [11]) it was 11 to 20 µM; in test [5] (setting [12]), 5 to 10 µM; in test [6] (setting [13]), 5 to 10 µM.
As to `CN(CCNC(=O)N(CCCl)N=O)CCN1C(=O)c2cccc3cc([N+](=O)[O-])cc(c23)C1=O` [Compound I-01], the IC50 in test [1] (setting [14]) was 0.5 to 1 µM; in test [2] (setting [15]) it was less than 0.5 µM; in test [3] (setting [16]) it was less than 0.5 µM; in test [4] (setting [17]) it was less than 0.5 µM; in test [5] (setting [18]), less than 0.5 µM; in test [6] (setting [19]), less than 0.5 µM. In test [7], the “Tumor growth inhibition rate (%)” value is recorded as 75.3%. In addition, in test [7], the “Tumor weight inhibition rate (%)” value is reported as 69.3%.
For the molecule `CC(C)(C)OC(=O)NCCCN1CCN(CCCN2C(=O)c3cccc4cc([N+](=O)[O-])cc(c34)C2=O)CC1` [Cob280], the IC50 fell in the range of 11 to 20 µM in test [1] (setting [8]); 11 to 20 µM in test [2] (setting [9]); 5 to 10 µM in test [3] (setting [10]); 11 to 20 µM in test [4] (setting [11]); 5 to 10 µM in test [5] (setting [12]); 5 to 10 µM in test [6] (setting [13]).
`CCN(CCNC(=O)N(C)CC)CCN1C(=O)c2cccc3cc([N+](=O)[O-])cc(c23)C1=O` [Compound I-04]: the half-maximal inhibitory concentration (IC50) in test [1] (setting [8]) fell in the range of 1 to 5 µM; in test [2] (setting [9]), 1 to 5 µM; in test [3] (setting [10]), 1 to 5 µM; in test [4] (setting [11]), 5 to 10 µM; in test [5] (setting [12]), 1 to 5 µM; in test [6] (setting [13]), 1 to 5 µM.
With `O=NN(CCCl)C(=O)N1CCN(CCN2C(=O)c3cccc4cc([N+](=O)[O-])cc(c34)C2=O)CC1` [Compound I-08], the IC50 in test [1] (setting [14]) fell in the range of 0.5 to 1 µM; in test [2] (setting [15]), 1 to 5 µM; in test [3] (setting [16]), 1 to 5 µM; in test [4] (setting [17]) it was 0.5 to 1 µM; in test [5] (setting [18]), 1 to 5 µM; in test [6] (setting [19]) it was 0.5 to 1 µM. In addition, in test [7], the “Tumor growth inhibition rate (%)” value is listed as 43.5%. Besides, the “Tumor weight inhibition rate (%)” value in test [7] is on record as 31.2%.
In the case of `CN(C)CCN1C(=O)c2cccc3cc(N)cc(c23)C1=O` [Amonafide], the IC50 in test [1] (setting [8]) lay within 1 to 5 µM; in test [2] (setting [9]) it was 11 to 20 µM; in test [3] (setting [10]), 5 to 10 µM; in test [4] (setting [11]), 5 to 10 µM; in test [5] (setting [12]) it was 11 to 20 µM; in test [6] (setting [13]) it was 11 to 20 µM.
